± gives the standard deviation of the averaged measurements.
Experiments:
Assay in all cases: level (log10 ratio to DMSO vehicle control); higher = higher biomarker level / cell amount than vehicle control
[1] = compound: OCC(F)(F)C(F)(F)C(F)(F)C(F)(F)C(F)(F)C(F)(F)C(F)(F)C(F)(F)C(F)(F)C(F)(F)C(F)(F)F [11:1 Fluorotelomer alcohol]; details: in DMSO
Method: (§1)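 BioMAP Diversity Plus panel of 12 human primary cell co-culture systems (3C, 4H, LPS, SAg, BT, BF4T, BE3C, CASM3C, HDF3CGF, KF3CT, MyoF, Mphg). Compounds were added 1 h before stimulation and left for 24 h (MyoF 48 h; BT 72 h for soluble read-outs or 6 d for IgG). Biomarkers were read by ELISA, cytotoxicity by SRB, PBMC viability and proliferation by Alamar Blue. Each well value was divided by the mean of 8 DMSO control wells on the same plate and log10 transformed; duplicate blinded samples were tested at 4 concentrations.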

[2] = compound: OCC(F)(F)C(F)(F)C(F)(F)C(F)(F)C(F)(F)C(F)(F)F [6:1 Fluorotelomer alcohol]; details: in DMSO
Method: as §1

[3] = compound: O=C(CC(=O)C(F)(F)C(F)(F)C(F)(F)F)c1cccs1 [(Perfluorobutyryl)-2-thenoylmethane]; details: in DMSO
Method: as §1

[4] = compound: OCC(F)(F)C(F)(F)C(F)(F)C(F)(F)C(F)(F)C(F)(F)C(F)(F)C(F)(F)CO [1H,1H,10H,10H-Perfluorodecane-1,10-diol]; details: in DMSO
Method: as §1

[5] = compound: FC(F)(I)C(F)(F)C(F)(F)C(F)(F)C(F)(F)C(F)(F)I [1,6-Diiodoperfluorohexane]; details: 6700 nM; in DMSO
Method: as §1

[6] = compound: OC(C(F)(F)F)(C(F)(F)F)C(O)(C(F)(F)F)C(F)(F)F [Perfluoropinacol]; details: in DMSO
Method: as §1

[7] = compound: C=CC(=O)OCCC(F)(F)C(F)(F)C(F)(F)C(F)(F)C(F)(F)C(F)(F)C(F)(F)C(F)(F)F [8:2 Fluorotelomer acrylate]; details: in DMSO
Method: as §1

Test System	level (log10) ([1]; 1100 nM)	level (log10) ([1]; 3300 nM)	level (log10) ([1]; 10000 nM)	level (log10) ([2]; 6700 nM)	level (log10) ([2]; 20000 nM)	level (log10) ([2]; 60000 nM)	level (log10) ([3]; 6700 nM)	level (log10) ([3]; 20000 nM)	level (log10) ([4]; 6700 nM)	level (log10) ([4]; 20000 nM)	level (log10) ([4]; 60000 nM)	level (log10) [5]	level (log10) ([6]; 6700 nM)	level (log10) ([6]; 20000 nM)	level (log10) ([7]; 6700 nM)	level (log10) ([7]; 20000 nM)	level (log10) ([7]; 60000 nM)
SAg:CXCL9/MIG	-0.004 ± 0.03	-0.0175 ± 0.035	0.012 ± 0.03	-0.0025 ± 0.021	-0.013 ± 0.018	-0.0055 ± 0.0092	-0.0075 ± 0.0035	-0.0245 ± 0.011	-0.022 ± 0.0042	0.0005 ± 0.019	-0.021	-0.008	-0.002 ± 0.0028	-0.005 ± 0.0014	-0.0065 ± 0.0035	-0.017 ± 0.0014	0.009 ± 0.0099
BE3C:CXCL11/I-TAC	-0.0085 ± 0.018	-0.025 ± 0.024	-0.005 ± 0.013	0.027 ± 0.0057	0.011 ± 0.017	0.008 ± 0.0099	-0.01	-0.28 ± 0.011	-0.0145 ± 0.0078	-0.149 ± 0.025	-0.901	0.024	0.0435 ± 0.00071	0.0115 ± 0.021	-0.019 ± 0.011	-0.0115 ± 0.013	0.003 ± 0.011
SAg:CXCL8/IL-8	0.0365 ± 0.042	-0.0005 ± 0.0035	-0.121 ± 0.28	-0.035 ± 0.048	-0.0425 ± 0.025	-0.013 ± 0.069	-0.169 ± 0.058	-0.177 ± 0.0085	-0.0125 ± 0.037	-0.01 ± 0.018	-0.051	-0.012	0.0725 ± 0.029	-0.139 ± 0.041	-0.021 ± 0.0099	-0.029 ± 0.0099	-0.0185 ± 0.043
4H:CD62P/P-selectin	-0.111 ± 0.042	-0.095 ± 0.079	-0.139 ± 0.13	-0.023 ± 0.038	-0.0435 ± 0.029	-0.182 ± 0.079	-0.0205 ± 0.037	-0.41 ± 0.032	-0.029 ± 0.052	-0.07 ± 0.083	-0.169	-0.001	-0.0165 ± 0.022	-0.217 ± 0.06	-0.018 ± 0.0028	-0.092 ± 0.0028	-0.047 ± 0.064
BE3C:IL-1alpha	-0.011 ± 0.018	-0.0325 ± 0.0021	-0.029 ± 0.02	-0.019 ± 0.0014	0.008 ± 0.0014	-0.0155 ± 0.04	-0.0165 ± 0.00071	-0.19 ± 0.005	-0.0035 ± 0.015	-0.022 ± 0.0099	-0.026	-0.004	-0.041 ± 0.021	-0.093 ± 0.0071	-0.007 ± 0.021	-0.015 ± 0.0042	0.0165 ± 0.029
BE3C:CXCL9/MIG	-0.0195 ± 0.00071	-0.03 ± 0.0028	-0.0385 ± 0.022	-0.005 ± 0.013	-0.002 ± 0.0099	-0.545 ± 0.4	-0.0095 ± 0.016	-0.142 ± 0.0028	-0.0105 ± 0.0021	-0.0495 ± 0.0021	-0.53	0.01	-0.0045 ± 0.015	0.002 ± 0.0071	-0.0115 ± 0.0035	-0.0075 ± 0.00071	0.0115 ± 0.021
3C:Proliferation	-0.189 ± 0.012	-0.436 ± 0.042	-0.338 ± 0.051	-0.0285 ± 0.0092	-0.0325 ± 0.0064	-0.685 ± 0.77	-0.276 ± 0.04	-0.891 ± 0.063	-0.047 ± 0.068	-0.0735 ± 0.06	-0.403	-0.102	-0.151 ± 0.0028	-0.441 ± 0.086	-0.035 ± 0.037	-0.009 ± 0.048	-0.0155 ± 0.005
BT:sIL-17A	0.329 ± 0.16	0.401 ± 0.032	0.325 ± 0.06	-0.063 ± 0.088	-0.107 ± 0.11	-0.475 ± 0.093	-0.135 ± 0.17	-0.524 ± 0.047	-0.0865 ± 0.012	-0.208 ± 0.24	-0.729	-0.079	-0.177 ± 0.11	-0.642 ± 0.061	0.0205 ± 0.054	0.0765 ± 0.13	-0.141 ± 0.084
SAg:SRB	-0.0415 ± 0.0092	-0.066 ± 0.0028	-0.065 ± 0.013	0.0065 ± 0.015	0 ± 0.0042	0.008 ± 0.0085	-0.012 ± 0.013	-0.0845 ± 0.0021	0.001 ± 0.018	-0.0145 ± 0.015	-0.067	0.011	-0.0285 ± 0.0078	-0.123 ± 0.0021	-0.004 ± 0.0028	-0.0055 ± 0.011	0.001 ± 0.014
BT:B cell Proliferation	-0.103 ± 0.023	-0.144 ± 0.026	-0.44 ± 0.42	-0.007 ± 0.013	-0.009 ± 0.038	-0.148 ± 0.1	-0.0105 ± 0.025	-0.122 ± 0.036	0.0155 ± 0.00071	0.0195 ± 0.0078	-0.316	-0.019	-0.0065 ± 0.0064	-0.085 ± 0.034	0.0155 ± 0.0021	0.0035 ± 0.00071	-0.0005 ± 0.04
BT:sIL-2	0.108 ± 0.058	0.0255 ± 0.083	-0.02 ± 0.073	0.0235 ± 0.028	-0.012 ± 0.075	-0.289 ± 0.081	0.0385 ± 0.067	-0.001 ± 0.0014	0.002 ± 0.035	0.0135 ± 0.005	-0.482	-0.059	0.107 ± 0.059	0.0335 ± 0.071	0.051 ± 0.0042	-0.061 ± 0.17	-0.036 ± 0.13
SAg:CCL2/MCP-1	0.0095 ± 0.0078	-0.013 ± 0.044	0.0225 ± 0.039	-0.002 ± 0.0057	-0.0085 ± 0.005	0.0175 ± 0.025	-0.06 ± 0.0042	-0.146 ± 0.0014	-0.0145 ± 0.0092	-0.02 ± 0.0042	-0.008	0.001	0.078 ± 0.018	-0.096 ± 0.0085	-0.0115 ± 0.00071	-0.023 ± 0.013	-0.0085 ± 0.036
BT:PBMC Cytotoxicity	-0.073 ± 0.044	-0.09 ± 0.038	-0.0775 ± 0.019	0.017 ± 0.025	0.011 ± 0.037	-0.082 ± 0.03	0.0005 ± 0.025	-0.0515 ± 0.037	0.0065 ± 0.026	-0.012 ± 0.0085	-0.246	0.035	0.011 ± 0.017	-0.0095 ± 0.023	0.011 ± 0.018	-0.0035 ± 0.035	-0.021 ± 0.079
SAg:Proliferation	-0.248 ± 0.083	-0.364 ± 0.13	-0.473 ± 0.35	-0.0075 ± 0.005	-0.0455 ± 0.0035	-0.0325 ± 0.13	-0.298 ± 0.019	-0.585	-0.0135 ± 0.025	-0.058 ± 0.013	-0.048	-0.028	0.0035 ± 0.093	-0.163 ± 0.021	0.0035 ± 0.022	-0.0625 ± 0.0064	-0.0055 ± 0.043
BF4T:CCL26/Eotaxin-3	-0.012 ± 0.0042	-0.003 ± 0.011	-0.0015 ± 0.0078	0.0385 ± 0.026	0.0185 ± 0.022	0.0445 ± 0.03	-0.181 ± 0.0035	-0.464 ± 0.018	-0.0415 ± 0.042	-0.134 ± 0.0021	-0.255	-0.071	-0.108 ± 0.0042	-0.217 ± 0.0057	-0.0555 ± 0.012	-0.0785 ± 0.079	-0.098 ± 0.12
LPS:CXCL8/IL-8	-0.007 ± 0.011	-0.013 ± 0.0014	-0.0305 ± 0.039	0.002 ± 0.011	-0.007 ± 0.018	0.0235 ± 0.0021	-0.0595 ± 0.032	-0.033 ± 0.047	-0.0065 ± 0.023	0.006 ± 0.0042	0.051	0.002	-0.003 ± 0.0028	-0.0315 ± 0.0021	-0.0055 ± 0.0092	-0.036 ± 0.04	-0.0085 ± 0.018
BF4T:SRB	-0.003 ± 0.0014	-0.0075 ± 0.0064	0.001 ± 0.014	-0.0045 ± 0.0064	-0.0045 ± 0.013	-0.004 ± 0.023	-0.023 ± 0.0085	-0.057 ± 0.0042	-0.005 ± 0.0028	-0.0315 ± 0.0035	-0.097	-0.016	-0.0135 ± 0.0021	-0.031 ± 0.0014	-0.004 ± 0.0028	-0.011 ± 0.013	0.0055 ± 0.0092
